Experimental data from ChEMBL document CHEMBL1201862, “PubChem BioAssay data set” (2004).
Active and inactive are the calls of the source.

Assays:
[1] = target: Botulinum neurotoxin type A (Clostridium botulinum (strain Hall / ATCC 3502 / NCTC 13319 / Type A), UniProt P0DPI1); test: High-throughput multiplex microsphere dose response for inhibitors of toxin protease, specifically Botulinum neurotoxin light chain A protease, compounds from Cherry Pick 02.; format: functional; settings: read-out: EC50_MICROM
[2] = target: Peroxisome proliferator-activated receptor gamma/Nuclear receptor coactivator 2 (Homo sapiens, UniProt P37231); test: (§1) TR-FRET dose response biochemical High Throughput Screening assay for agonists of the steroid receptor coactivator 2 (SRC-2) recruitment by the peroxisome proliferator-activated receptor gamma (PPAR gamma): non-selective agonists. [Related pubchem assays: 1297, 1032 ]; format: functional
[3] = target: Botulinum neurotoxin type F (Clostridium botulinum, UniProt P30996); test: High-throughput multiplex microsphere dose response for inhibitors of toxin protease, specifically Botulinum neurotoxin light chain F protease, compounds from Cherry Pick 02.; format: functional; settings: read-out: EC50_MICROM
Chain of Botulinum neurotoxin type F (P30996 1-436 limits assumed): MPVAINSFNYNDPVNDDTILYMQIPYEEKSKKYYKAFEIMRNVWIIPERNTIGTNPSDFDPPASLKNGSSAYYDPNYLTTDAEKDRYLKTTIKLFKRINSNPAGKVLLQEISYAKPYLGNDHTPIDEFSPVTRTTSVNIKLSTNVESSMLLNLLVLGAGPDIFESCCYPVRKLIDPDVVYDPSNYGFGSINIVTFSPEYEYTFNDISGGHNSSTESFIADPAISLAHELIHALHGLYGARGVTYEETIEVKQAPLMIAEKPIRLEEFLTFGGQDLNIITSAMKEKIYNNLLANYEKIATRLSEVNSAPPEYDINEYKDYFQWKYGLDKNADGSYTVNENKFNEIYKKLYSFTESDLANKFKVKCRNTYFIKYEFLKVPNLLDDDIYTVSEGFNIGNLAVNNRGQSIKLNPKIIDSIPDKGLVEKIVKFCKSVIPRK

[4] = target: Peroxisome proliferator-activated receptor gamma/Nuclear receptor coactivator 1 (Homo sapiens, UniProt P37231); test: as §1, with “1 (SRC-1)” for “2 (SRC-2)”, “assays (depositor defined):AID1300, AID1808, AID504735, AID631]” for “assays: 1297, 1032 ]”; format: protein assay
[5] = target: Peroxisome proliferator-activated receptor gamma/Nuclear receptor coactivator 3 (Homo sapiens, UniProt P37231); test: as §1, with “3 (SRC-3)” for “2 (SRC-2)”, “1301 (Confirmation screen.), 1048 (Primary screen.)]” for “1297, 1032 ]”; format: functional
Protein S100-A4 = Protein S100-A4 (Homo sapiens, UniProt P26447); test: S100A4-myosin IIA binding inhibitor potency, dose response, biochemical, fluorescence polarization, cherry-picked hits (AID 687001); format: functional
Chain of Protein S100-A4 (P26447 whole entry): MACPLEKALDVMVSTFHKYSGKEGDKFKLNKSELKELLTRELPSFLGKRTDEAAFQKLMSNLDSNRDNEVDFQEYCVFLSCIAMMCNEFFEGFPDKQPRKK

[6] = target: Vascular endothelial growth factor receptor 2 (Homo sapiens, UniProt P35968); format: functional
[7] = target: Tyrosine-protein kinase ABL1 (Homo sapiens, UniProt P00519); format: functional
[8] = target: Sphingosine 1-phosphate receptor 2 (Homo sapiens, UniProt O95136); test: Late-stage fluorescence-based dose-response cell-based counterscreen assay to identify agonists of the Sphingosine 1-Phosphate Receptor 3 (S1P3): Sphingosine 1-Phosphate Receptor 2 (S1P2) agonist assay.; format: functional
[9] = target: T1, Sphingosine 1-phosphate receptor 4 (Homo sapiens, UniProt O95977); test: Late-stage fluorescence-based dose-response cell-based counterscreen assay to identify agonists of the Sphingosine 1-Phosphate Receptor 3 (S1P3): Sphingosine 1-Phosphate Receptor 4 (S1P4) agonist assay.; format: functional
T1 sequence (O95977 whole entry): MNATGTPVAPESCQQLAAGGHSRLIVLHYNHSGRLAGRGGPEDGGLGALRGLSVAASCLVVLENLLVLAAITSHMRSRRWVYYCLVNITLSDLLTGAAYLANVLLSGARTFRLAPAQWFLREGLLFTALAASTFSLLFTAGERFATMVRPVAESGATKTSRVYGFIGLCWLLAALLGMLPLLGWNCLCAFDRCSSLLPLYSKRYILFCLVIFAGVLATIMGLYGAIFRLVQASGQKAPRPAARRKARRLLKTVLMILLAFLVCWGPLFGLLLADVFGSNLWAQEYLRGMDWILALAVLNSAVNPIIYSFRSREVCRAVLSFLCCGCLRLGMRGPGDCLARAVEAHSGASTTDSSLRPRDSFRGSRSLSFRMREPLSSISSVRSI

[10] = target: T2, DNA dC->dU-editing enzyme APOBEC-3A (Homo sapiens, UniProt P31941); test: SAR analysis of small molecule inhibitors of APOBEC3A DNA Deaminase via a fluorescence-based single-stranded DNA deaminase assay.; format: functional; settings: read-out: IC50_Mean
T2 sequence (P31941 whole entry): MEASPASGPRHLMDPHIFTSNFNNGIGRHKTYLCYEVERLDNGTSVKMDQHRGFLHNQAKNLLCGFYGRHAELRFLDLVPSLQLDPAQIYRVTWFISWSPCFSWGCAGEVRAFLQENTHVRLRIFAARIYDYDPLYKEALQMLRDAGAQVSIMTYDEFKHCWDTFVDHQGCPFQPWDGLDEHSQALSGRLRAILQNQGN

[11] = target: T3, DNA dC->dU-editing enzyme APOBEC-3G (Homo sapiens, UniProt Q9HC16); test: Dose Response confirmation of small molecule APOBEC3G DNA Deaminase Inhibitors via a fluorescence-based single-stranded DNA deaminase assay. [Related pubchem assays (depositor defined):AID493012, AID493028]; format: functional
T3 sequence (Q9HC16 whole entry): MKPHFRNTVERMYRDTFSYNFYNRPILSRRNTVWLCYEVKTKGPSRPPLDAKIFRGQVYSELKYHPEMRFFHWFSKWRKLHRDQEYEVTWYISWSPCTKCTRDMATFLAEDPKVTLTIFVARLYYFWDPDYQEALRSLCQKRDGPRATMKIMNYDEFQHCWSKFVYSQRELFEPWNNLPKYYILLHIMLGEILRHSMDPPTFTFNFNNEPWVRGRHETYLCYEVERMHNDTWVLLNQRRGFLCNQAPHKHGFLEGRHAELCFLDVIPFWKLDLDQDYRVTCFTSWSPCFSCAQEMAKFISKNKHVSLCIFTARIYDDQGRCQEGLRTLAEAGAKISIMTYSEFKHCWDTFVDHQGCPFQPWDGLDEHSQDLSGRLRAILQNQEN

[12] = target: T2, DNA dC->dU-editing enzyme APOBEC-3A; test: APOBEC3A DNA deaminase inhibitors, dose response, biochemical (AID 504722); format: functional
[13] = target: T4, Mitochondrial peptide methionine sulfoxide reductase (Bos taurus, UniProt P54149); test: Absorbance-based biochemical high throughput dose response assay for activators of Methionine sulfoxide reductase A (MsrA).; format: functional
T4 sequence (P54149 whole entry): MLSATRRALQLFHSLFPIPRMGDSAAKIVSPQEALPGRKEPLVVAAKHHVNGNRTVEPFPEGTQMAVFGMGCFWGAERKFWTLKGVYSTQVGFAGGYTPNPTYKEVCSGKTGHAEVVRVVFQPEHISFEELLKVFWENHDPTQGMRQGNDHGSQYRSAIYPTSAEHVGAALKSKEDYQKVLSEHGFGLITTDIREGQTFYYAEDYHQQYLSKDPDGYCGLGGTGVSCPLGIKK

[14] = target: T3, DNA dC->dU-editing enzyme APOBEC-3G; test: APOBEC3G deaminase inhibitors, SAR follow-up, biochemical, fluorescence, single-stranded DNA substrate (AID 602136); format: functional; settings: read-out: IC50_Mean
[15] = target: T2, DNA dC->dU-editing enzyme APOBEC-3A; test: SAR analysis of small molecule inhibitors of APOBEC3A DNA Deaminase via a fluorescence-based single-stranded DNA deaminase assay - Set 2.; format: functional; settings: read-out: IC50_Mean
[16] = target: T3, DNA dC->dU-editing enzyme APOBEC-3G; test: SAR analysis of small molecule inhibitors of APOBEC3G DNA Deaminase via a fluorescence-based single-stranded DNA deaminase assay - Set 2.; format: functional; settings: read-out: IC50_Mean
[17] = target: Cell division cycle 7-related protein kinase (Homo sapiens, UniProt O00311); format: functional;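 further: value obtained from a kinome-wide kinase panel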
Chain of Cell division cycle 7-related protein kinase (O00311 whole entry): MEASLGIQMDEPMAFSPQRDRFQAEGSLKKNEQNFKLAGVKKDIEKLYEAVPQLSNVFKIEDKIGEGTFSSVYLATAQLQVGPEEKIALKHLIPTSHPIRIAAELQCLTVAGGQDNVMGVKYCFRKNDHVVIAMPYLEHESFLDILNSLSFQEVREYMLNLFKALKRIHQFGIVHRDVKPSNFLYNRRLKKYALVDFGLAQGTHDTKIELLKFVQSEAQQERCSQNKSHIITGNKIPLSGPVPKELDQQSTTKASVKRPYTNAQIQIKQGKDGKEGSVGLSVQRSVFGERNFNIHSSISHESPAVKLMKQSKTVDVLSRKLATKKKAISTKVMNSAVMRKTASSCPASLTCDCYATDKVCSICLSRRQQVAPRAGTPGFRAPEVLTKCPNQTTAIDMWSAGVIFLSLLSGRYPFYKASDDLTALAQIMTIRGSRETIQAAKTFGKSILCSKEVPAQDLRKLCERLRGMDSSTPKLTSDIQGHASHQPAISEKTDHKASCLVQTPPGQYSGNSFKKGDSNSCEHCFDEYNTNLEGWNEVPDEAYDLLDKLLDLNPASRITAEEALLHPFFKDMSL

[18] = target: Dual specificity tyrosine-phosphorylation-regulated kinase 4 (Homo sapiens, UniProt Q9NR20); format: functional
Chain of Dual specificity tyrosine-phosphorylation-regulated kinase 4 (Q9NR20 whole entry): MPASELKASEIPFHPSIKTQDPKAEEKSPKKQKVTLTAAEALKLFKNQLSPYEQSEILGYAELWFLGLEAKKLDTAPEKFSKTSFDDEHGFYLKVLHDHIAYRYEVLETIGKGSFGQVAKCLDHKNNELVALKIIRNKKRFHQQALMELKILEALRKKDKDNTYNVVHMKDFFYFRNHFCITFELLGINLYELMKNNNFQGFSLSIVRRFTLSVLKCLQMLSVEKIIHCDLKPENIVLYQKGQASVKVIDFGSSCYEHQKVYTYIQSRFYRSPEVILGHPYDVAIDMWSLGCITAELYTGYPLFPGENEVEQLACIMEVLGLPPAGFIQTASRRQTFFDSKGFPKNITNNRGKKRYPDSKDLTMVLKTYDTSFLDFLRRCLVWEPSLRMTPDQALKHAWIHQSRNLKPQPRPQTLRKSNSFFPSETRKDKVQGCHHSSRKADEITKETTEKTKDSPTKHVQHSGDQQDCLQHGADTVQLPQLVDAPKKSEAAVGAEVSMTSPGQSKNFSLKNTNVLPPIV

[19] = target: Eukaryotic elongation factor 2 kinase (Homo sapiens, UniProt O00418); format: functional
Chain of Eukaryotic elongation factor 2 kinase (O00418 whole entry): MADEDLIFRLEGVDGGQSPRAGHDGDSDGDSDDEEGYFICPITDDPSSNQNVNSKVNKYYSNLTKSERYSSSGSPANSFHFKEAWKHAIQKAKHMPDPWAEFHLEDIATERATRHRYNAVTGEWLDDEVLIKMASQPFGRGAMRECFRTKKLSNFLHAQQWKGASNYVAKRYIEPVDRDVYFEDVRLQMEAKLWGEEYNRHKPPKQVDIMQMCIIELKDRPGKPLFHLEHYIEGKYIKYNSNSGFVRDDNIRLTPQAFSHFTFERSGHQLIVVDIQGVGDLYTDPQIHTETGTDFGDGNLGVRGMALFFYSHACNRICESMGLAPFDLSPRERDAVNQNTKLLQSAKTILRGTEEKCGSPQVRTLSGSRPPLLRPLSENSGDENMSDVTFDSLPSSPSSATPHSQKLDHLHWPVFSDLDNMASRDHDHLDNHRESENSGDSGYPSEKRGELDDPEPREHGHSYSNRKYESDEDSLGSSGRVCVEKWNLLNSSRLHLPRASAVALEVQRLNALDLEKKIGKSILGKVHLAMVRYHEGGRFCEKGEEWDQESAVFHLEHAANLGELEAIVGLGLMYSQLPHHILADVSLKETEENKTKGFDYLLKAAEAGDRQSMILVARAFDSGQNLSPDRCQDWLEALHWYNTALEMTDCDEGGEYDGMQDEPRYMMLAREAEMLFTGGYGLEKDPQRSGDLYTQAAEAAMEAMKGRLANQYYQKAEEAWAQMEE

[20] = target: MAP kinase-activated protein kinase 3 (Homo sapiens, UniProt Q16644); format: functional;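 further: value comes from a kinome-wide profiling panel in which MAPKAPK3 is one of the panel members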
Chain of MAP kinase-activated protein kinase 3 (Q16644 whole entry): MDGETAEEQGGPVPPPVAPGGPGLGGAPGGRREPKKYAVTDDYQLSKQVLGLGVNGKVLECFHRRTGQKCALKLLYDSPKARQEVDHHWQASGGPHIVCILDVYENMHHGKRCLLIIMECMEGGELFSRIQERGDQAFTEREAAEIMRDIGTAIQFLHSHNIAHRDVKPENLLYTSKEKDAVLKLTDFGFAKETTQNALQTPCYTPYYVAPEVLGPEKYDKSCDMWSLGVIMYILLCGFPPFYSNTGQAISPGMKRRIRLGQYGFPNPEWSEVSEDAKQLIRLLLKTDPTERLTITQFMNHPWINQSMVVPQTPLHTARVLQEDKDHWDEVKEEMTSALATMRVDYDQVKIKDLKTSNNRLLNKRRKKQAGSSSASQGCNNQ

[21] = target: Dual specificity tyrosine-phosphorylation-regulated kinase 3 (Homo sapiens, UniProt O43781); format: functional;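 further: measured as one member of a broad kinase panel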
Chain of Dual specificity tyrosine-phosphorylation-regulated kinase 3 (O43781 whole entry): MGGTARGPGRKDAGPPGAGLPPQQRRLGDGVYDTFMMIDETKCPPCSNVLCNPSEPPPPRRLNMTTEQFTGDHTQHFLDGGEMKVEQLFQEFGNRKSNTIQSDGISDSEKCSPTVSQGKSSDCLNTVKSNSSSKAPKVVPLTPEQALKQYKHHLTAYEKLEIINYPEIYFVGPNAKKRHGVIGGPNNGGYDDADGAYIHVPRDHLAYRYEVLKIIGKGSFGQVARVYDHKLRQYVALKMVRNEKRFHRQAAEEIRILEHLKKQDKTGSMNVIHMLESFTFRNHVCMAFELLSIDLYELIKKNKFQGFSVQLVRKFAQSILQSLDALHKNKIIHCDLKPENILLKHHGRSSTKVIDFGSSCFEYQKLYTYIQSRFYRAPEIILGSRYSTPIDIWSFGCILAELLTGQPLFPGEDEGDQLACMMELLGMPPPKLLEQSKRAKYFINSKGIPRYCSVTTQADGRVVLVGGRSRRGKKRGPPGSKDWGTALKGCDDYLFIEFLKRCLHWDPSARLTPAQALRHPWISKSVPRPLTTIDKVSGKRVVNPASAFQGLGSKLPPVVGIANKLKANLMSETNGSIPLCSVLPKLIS

[22] = target: Testis-specific serine/threonine-protein kinase 2 (Homo sapiens, UniProt Q96PF2); format: functional;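 further: part of the Navigating the Kinome panel, target entry STK22B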
[23] = target: Protein kinase C gamma type (Homo sapiens, UniProt P05129); format: functional
[24] = target: Lymphokine-activated killer T-cell-originated protein kinase (Homo sapiens, UniProt Q96KB5); format: functional;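 further: value comes from a kinase panel screen in which TOPK was one of the panel members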
Chain of Lymphokine-activated killer T-cell-originated protein kinase (Q96KB5 whole entry): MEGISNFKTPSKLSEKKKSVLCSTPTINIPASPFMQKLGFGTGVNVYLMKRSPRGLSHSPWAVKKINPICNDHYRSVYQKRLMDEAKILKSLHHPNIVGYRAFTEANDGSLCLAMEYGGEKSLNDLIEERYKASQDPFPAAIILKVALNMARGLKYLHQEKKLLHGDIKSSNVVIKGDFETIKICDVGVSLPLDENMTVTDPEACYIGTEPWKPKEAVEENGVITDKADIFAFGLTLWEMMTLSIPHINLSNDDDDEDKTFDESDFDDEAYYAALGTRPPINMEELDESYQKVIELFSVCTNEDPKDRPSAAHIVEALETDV

Cc1cc2ccccc2n1CCNC(=O)c1ccc(S(=O)(=O)N2CCCCC2)cc1
13.6 µM (not active): EC50 [5]
active: EC50 [1] 1 µM | EC50 [2] 6.53 µM | EC50 [4] 5.91 µM | AC50 (Protein S100-A4) 6.69 µM
inactive: EC50 [3] > 20 µM

N#Cc1cnc2c(Br)cnn2c1N
active: Ki [6] 100 µM | Ki [7] 79.4 µM

COc1ccc(-c2cc(C(=O)N(C3CCCCC3)C3CCCCC3)no2)cc1OC
inactive: EC50 [8] > 50 µM | EC50 [9] > 50 µM

Sc1nnc(NCCc2ccccc2)s1
active: IC50 [11] 1.2 µM | IC50 [14] 0.835 µM | IC50 [16] 0.695 µM
inactive: IC50 [10] > 99 µM | IC50 [12] > 100 µM | EC50 [13] > 104 µM | IC50 [15] > 99 µM

Cc1ccc(NC(=O)c2ccc(CN3CCN(C)CC3)cc2)cc1Nc1nccc(-c2cccnc2)n1 [IMATINIB]
inactive: Ki [17] > 1.26 µM | Ki [18] > 7.94 µM | Ki [19] > 3.98 µM | Ki [20] > 10 µM | Ki [21] > 6.31 µM | Ki [22] > 1.58 µM | Ki [23] > 7.94 µM | Ki [24] > 10 µM
